This assay has as its system hippocampal neurons intoxicated with Aβ1-42 oligomers. In words: Protection against Abeta neurotoxicity in primary hippocampal neurons in microfluidic chambers. It is filed as cell-based, mice. More on the design: key to Protective effect against Aβ toxicity: +: significant protection against a Aβ-induced cell death, Aβ-induced axonal degeneration, Aβ-induced electrophysiological dysfunction, and/or Aβ-induced synapse loss. The note with it: for Protective effect against Aβ toxicity: hippocampal cells pre-incubated 1 h, then Aβ1-42 oligomers. An excerpt: Hippocampus are micro-dissected from E16 embryos of C57B16/J wt mice (Rene Janvier, France) in cold Gey's Balanced Salt Solution (GBSS, Sigma) supplemented with 0.1% glucose (Life technologies).
Dissected structures are digested with papain (20 U/ML in DMEM, Sigma; St. Louis, Mo., USA) and mechanically dissociated in the presence of DNAse. Hippocampal cells are then rinsed and re-suspended in DMEM (Life Technologies, Inc., Gaithersburg, Md., USA) to a final density of 18 million cells/ml in Neurobasal (Life technologies) and Glutamax (0.1% LifeTechnologies) supplemented with B27 (1/50) and penicilline/sptreptomycine 1% (Gibco).
This cell suspension is then used to fill the reservoirs of microfluidic chambers, as described (Peyrin et al, 2011 Lab Chips 11(21):3663; Deleglise et al, 2014 Acta Neuropathologica Comm. 2: 145). Microfluidic chips are placed in plastic Petri dishes containing H20-EDTA to prevent evaporation and incubated at 37° C. in a humid 5% CO2 atmosphere. The culture medium is renewed every seven days.
Oligomeric form of Aβ1-42 (Tocris Bioscience, MN, USA), is produced according to Stine W B et al (2003) in J Biol Chem 278, pp 11612-11622 and can be controlled by electron microscopy as in Deleglise B et al. in Acta Neuropathol Commun. 2014; 2: 145).
Briefly, Aβ1-42 lyophilized peptides are solubilized at 1 mM in 1, 1, 1, 3, 3, 3,-hexafluoro-2-propanol (HFIP, Sigma Aldrich). After 30 min of incubation at RT, HFIP is evaporated for 12 h under chemical hood and peptides are dried for 1 h (with a Speed Vac at 4° C.). Then, 5 mM Aβ peptide stock solutions are obtained by resolubilization at in dimethylsulfoxide (DMSO, Sigma Aldrich). To obtain oligomers, Aβ peptide stock solution is diluted in cold phenol free DMEM-F12 medium (Life Technologies) to a final concentration of 100 μM. The solution is then incubated 24 h at 4° C. Soluble Aβ oligomer fraction is collected from the supernatant after a centrifugation step at 20 000 g (10 min; 4° C.), and stored at −80° C. until use.
After 18 days of culture in micro fluidic chambers, hippocampal cells are pre-incubated for 1 h with compounds of the invention prior diluted in phenol free DMEM-F12 medium or in phenol free DMEM-F12 medium alone as a control solution. Cells are then intoxicated for 3 h to 6 h or 24 h with 10 or 100 nm of Aβ1-42 oligomers (or with phenol free DMEM-F12 medium alone as a control solution). After the intoxication step, cells are fixed in 4% paraformaldehyde (PFA, Sigma; St. Louis, Mo., USA) for 20 min RT, and labelled as explained below to evaluate synapses status, cell death or axonal degeneration.
Briefly, after the fixation step, cultures cells are washed twice with PBS+Azide 0.1% for 5 min and permeabilized for 10 min with 0.2% Triton X-100 and 0.1% BSA (Bovine Serum Albumin, Sigma) in PBS+Azide 0.1%. Saturation step is then realized by incubating cells during 30 min in PBS+Azide 0.1%+BSA1%. Primary antibodies are then added and the samples incubated at 4° C. overnight in PBS. Afterwards, samples are rinsed twice for 5 min with PBS+Azide 0.1% and further incubated with the corresponding secondary antibody together with phalloidin conjugated to Alexa Fluor 555 for 2 h RT. The chips were then rinsed twice with PBS+Azide 0.1%.
The following antibodies are used: rabbit polyclonal anti-MAP-2 (AB5622; 1/400, MILLIPORE), mouse monoclonal Anti-Bassoon SAP7F407; 1:400, Enzo LifeSciences). Species-specific secondary antibodies coupled to Alexa 350, 488 or 500 are used (1/500, Life Technologies, Inc., Gaithersburg, Md., USA). Phalloidin conjugated to Alexa Fluor 555 (1/500, EnzoLifeTechnologies) is used to stain F-actin.
Images are acquired with an Axio-observer Zl (Zeiss, Germany) fitted with a cooled CCD camera (CoolsnapHQ2, Ropert Scientific). The microscope is controlled with Metamorph and Micro-manager software. Images were analyzed using ImageJ software.

SMILES strings stand for the structures. Where a SMILES comes first, the peptide text is derived from it. [ ]: non-standard residue; d: D form. The star is where a group is joined. Pro(3S-CH2tBu) = CC(C)(C)C[C@H]1CCN[C@@H]1C(=O)O; X4 = CN(Cc1ccccc1)C(=O)/C=C/C(=O)N(CC(=O)O)N*; X3 = O=C(O)CN(N*)C(=O)COc1c(F)cccc1F; Quinaldoyl = O=C(c1ccc2ccccc2n1)*; X1 = c1ncc(CO*)s1

Take `CC(C)[C@H](NC(=O)c1ccc2ccccc2n1)C(=O)N[C@@H](CC(=O)O)C(=O)N[C@H](C(=O)N1CC[C@H](CC(C)(C)C)[C@H]1C(=O)NN(CC(=O)O)C(=O)/C=C/C(=O)N(C)Cc1ccccc1)C(C)C` [Compound 5, (S)-4-(((S)-1-((2S,3S)-2-(2-((E)-4-(benzyl(methyl)amino)-4-oxobut-2-enoyl)-2-(carboxymethyl)hydrazinecarbonyl)-3-neopentylpyrrolidin-1-yl)-3-methyl-1-oxobutan-2-yl)amino)-3-((S)-3-methyl-2-(quinoline-2-carboxamido)butanamido)-4-oxobutanoic acid] (Quinaldoyl-VDV[Pro(3S-CH2tBu)]-X4): the “Protective effect against Aβ toxicity” value is on record as “+”.

For the compound `CC(C)[C@H](NC(=O)[C@H](CC(=O)O)NC(=O)C(=O)Nc1ccccc1C(C)(C)C)C(=O)N1CC[C@H](CC(C)(C)C)[C@H]1C(=O)NN(CC(=O)O)C(=O)COc1c(F)cccc1F` [Compound 6, (S)-3-(2-((2-(tert-butyl)phenyl)amino)-2-oxoacetamido)-4-(((S)-1-((2S,3S)-2-(2-(carboxymethyl)-2-(2-(2,6-difluorophenoxy)acetyl)hydrazinecarbonyl)-3-neopentylpyrrolidin-1-yl)-3-methyl-1-oxobutan-2-yl)amino)-4-oxobutanoic acid], the “Protective effect against Aβ toxicity” value is “+”.

On to `CC(C)[C@H](NC(=O)c1ccc2ccccc2n1)C(=O)N[C@@H](CC(=O)O)C(=O)N[C@H](C(=O)N1CC[C@H](CC(C)(C)C)[C@H]1C(=O)N[C@@H](CC(=O)O)C(=O)COc1c(F)cccc1F)C(C)C` (single isomer, unassigned) [Compound 2 enantiomer a], for which, for the setting “pretreated at 0.1 μM or 1 μM, Aβ[1-42] oligomers 10 nM, **p<0.01”, the “Synapse protection toward Amyloid beta peptide [1-42] oligomers toxicity (FIG. 1)” value is given as “Synapse protection”.

With `CC(C)[C@H](NC(=O)c1ccc2ccccc2n1)C(=O)N[C@@H](CC(=O)O)C(=O)N[C@H](C(=O)N1CC[C@H](CC(C)(C)C)[C@H]1C(=O)N[C@@H](CC(=O)O)C(=O)OCc1cncs1)C(C)C` [Compound 3, (S)-4-(((S)-1-((2S,3S)-2-(((S)-3-carboxy-1-oxo-1-(thiazol-5 - ylmethoxy)propan-2-yl)carbamoyl)-3-neopenthylpyrrolidin-1-yl)-3-methyl-1-oxobutan-2-yl)amino)-3-((S)-3-methyl-2-(quinoline-2-carboxamido)butanamido)-4-oxobutanoic acid] (Quinaldoyl-VDV[Pro(3S-CH2tBu)]D-X1), the “Protective effect against Aβ toxicity” value is on record as “+”.

With `CC(C)[C@H](NC(=O)c1ccc2ccccc2n1)C(=O)N[C@@H](CC(=O)O)C(=O)N[C@H](C(=O)N1CC[C@H](CC(C)(C)C)[C@H]1C(=O)NN(CC(=O)O)C(=O)COc1c(F)cccc1F)C(C)C` [Compound 4, (S)-4-(((S)-1-((2S,3S)-2-(2-(carboxymethyl)-2-(2-(2,6-difluorophenoxy)acetyl)hydrazinecarbonyl)-3-neopentylpyrrolidin-1-yl)-3-methyl-1-oxobutan-2-yl)amino)-3-((S)-3-methyl-2-(quinoline-2-carboxamido)butanamido)-4-oxobutanoic acid] (Quinaldoyl-VDV[Pro(3S-CH2tBu)]-X3), the “Protective effect against Aβ toxicity” value is listed as “+”.

The values above are taken from patent publication US11407741B2, “Compounds and their use as selective inhibitors of caspase-2” (priority 2017, dated 2022).
